Assay results reported in patent US11142529B2 (priority 2013, dated 2021).

Legend:
GABAA receptors (α5β2γ2) = target: T1, GABAA receptors (α5β2γ2) (Homo sapiens, UniProt P18507+P31644); assay: Positive allosteric modulator activity, potentiation of EC20 GABA current in oocytes; type: cell-based; conditions: read-out: GABA α5 functional potentiation
T1 construct: expressed in transfected cells; host or cells: oocytes injected with a mix of alpha, beta and gamma cDNA (1:1:10 by weight)
Method: On day 1, 1 ng/32 nL of GABAA […] cDNA was injected into one oocyte. Test starts on day 2. The cDNA injected to the oocytes was a mix of alpha, beta and gamma, their ratio is 1:1:10 (by weight) and the total weight of the mixed 3 subunits to be injected in one oocyte was 1 ng in 32 nl volume. The injected oocytes can also be tested on day 3. In such case, the cDNA amount injected to the oocytes should be reduced by 20%.
1). 8 oocytes were placed in 8 chambers of OpusXpress and superfused with Modified Barth's Saline (MBS) at 3 mL/min. Glass electrodes back-filled with 3M KCl (0.5-3 megaohms) were used.
3). […] Oocytes were washed with MBS for 5-10 min.
2). […] Divide Itest by IGABA to obtain potentiation (%).
3). Discard all tested oocytes, new oocytes were used and the above steps 1) and 2) were repeated to test second concentration of the same compound. Each oocyte was used for only one concentration test for a single test compound. The steps were repeated for other test compounds.

α5β3γ2 GABAA receptors = target: T2, α5β3γ2 GABAA receptors (Homo sapiens, UniProt P18507+P31644); assay: Binding activity of test compounds on GABAAR ([3H]Ro15-1788 inhibition, Ltk cell membranes)
T2 construct: membranes
Method: The binding was performed on Ltk cells stably expressing GABAA receptors: α1β1γ2, α2β3γ2, α3β3γ2 and α5β3γ2 (provided by Merck Co., NJ, USA). Cells were seeded in 100 mm culture plates in DMEM/F12 medium containing 10% serum and antibiotics in 5% C02 and allowed to grow for 1-2 days. GABAAR expression was then induced by dexamethasone as follows: 0.5 μM for 1 day for α5 containing and 2 μM for 3 days for α1, α2 and α3 containing GABAARs. After induction, cells were collected by scraping into Dulbecco's Phosphate buffered saline (DPBS, pH 7.4, Invitrogen, Carlsbad, Calif., USA) and centrifuged at 150×g for 10 min. The pellet was washed twice by re-suspension and centrifugation. The cell pellets from at least 5 different preps were combined, suspended in the binding assay buffer (50 mM KH2PO4; 1 mM EDTA; 0.2 M KCl, pH 7.4) and membranes prepared by sonication (3-5 times, 30 sec) using Branson Sonifier 150 (G.Heinmann, Germany). Protein content was determined using BCA assay (Bio-Rad Labs, Reinach, Switzerland) with Bovine Serum Albumin (Sigma Aldrich, St. Louis, Mo., USA) as the standard. Aliquots were prepared and stored at −20° C. for further use in binding assays.
Saturation binding curves were obtained by incubating membranes with increasing concentrations (0.01-8 nM) of [^3H]Ro15-1788 (Flumazepil, 75-85 Ci/mmol, PerkinElmer, MA, USA), with nonspecific binding measured in the presence of 10 μM diazepam.
All binding assays were performed for 1 h at 4° C. in assay buffer. The total assay volume was 0.5 ml containing 0.2 mg/ml protein for α5 and 0.4 mg/ml for α1, α2, and α3 containing GABAAR membranes. Incubations were terminated by filtration through GF/B filters using a 24-Cell Harvestor (Brandel, Gaithersburg, Md., USA) followed by 3 washes with ice-cold assay buffer. Filters were transferred to scintillation vials, 5 ml scintillation liquid added, vortex-mixed and kept in dark. Next day, radioactivity was obtained using a scintillation counter (Beckman Coulter, Brea, Calif., USA). All assays were performed in triplicate.
Saturation and inhibition curves were obtained using GraphPad Prism software (GraphPad Software, Inc., CA, USA).

T2 sequence (P31644 32-462): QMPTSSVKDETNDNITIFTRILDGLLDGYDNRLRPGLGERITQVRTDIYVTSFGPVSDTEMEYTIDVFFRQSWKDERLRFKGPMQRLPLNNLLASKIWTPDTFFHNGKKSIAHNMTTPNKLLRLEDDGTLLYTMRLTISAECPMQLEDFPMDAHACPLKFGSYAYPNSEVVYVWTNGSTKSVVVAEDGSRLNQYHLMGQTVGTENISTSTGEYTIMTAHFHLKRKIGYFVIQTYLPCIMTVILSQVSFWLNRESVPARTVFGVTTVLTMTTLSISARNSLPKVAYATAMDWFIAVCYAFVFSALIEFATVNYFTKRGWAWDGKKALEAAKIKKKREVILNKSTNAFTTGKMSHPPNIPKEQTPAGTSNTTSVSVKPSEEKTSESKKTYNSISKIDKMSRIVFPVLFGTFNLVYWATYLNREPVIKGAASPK
T2 sequence (P28472 26-473 partner): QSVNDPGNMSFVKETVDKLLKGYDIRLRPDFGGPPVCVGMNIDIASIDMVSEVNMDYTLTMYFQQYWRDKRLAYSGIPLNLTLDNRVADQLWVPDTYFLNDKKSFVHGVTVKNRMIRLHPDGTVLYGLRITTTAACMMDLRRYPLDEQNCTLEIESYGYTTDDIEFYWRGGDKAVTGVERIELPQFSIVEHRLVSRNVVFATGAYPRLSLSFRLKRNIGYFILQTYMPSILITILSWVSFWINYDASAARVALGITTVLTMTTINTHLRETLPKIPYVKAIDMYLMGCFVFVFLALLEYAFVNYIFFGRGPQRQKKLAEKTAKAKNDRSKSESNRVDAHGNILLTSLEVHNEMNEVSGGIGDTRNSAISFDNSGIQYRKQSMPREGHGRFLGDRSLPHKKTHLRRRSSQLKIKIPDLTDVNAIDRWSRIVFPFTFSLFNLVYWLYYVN
T2 sequence (P18507 40-475): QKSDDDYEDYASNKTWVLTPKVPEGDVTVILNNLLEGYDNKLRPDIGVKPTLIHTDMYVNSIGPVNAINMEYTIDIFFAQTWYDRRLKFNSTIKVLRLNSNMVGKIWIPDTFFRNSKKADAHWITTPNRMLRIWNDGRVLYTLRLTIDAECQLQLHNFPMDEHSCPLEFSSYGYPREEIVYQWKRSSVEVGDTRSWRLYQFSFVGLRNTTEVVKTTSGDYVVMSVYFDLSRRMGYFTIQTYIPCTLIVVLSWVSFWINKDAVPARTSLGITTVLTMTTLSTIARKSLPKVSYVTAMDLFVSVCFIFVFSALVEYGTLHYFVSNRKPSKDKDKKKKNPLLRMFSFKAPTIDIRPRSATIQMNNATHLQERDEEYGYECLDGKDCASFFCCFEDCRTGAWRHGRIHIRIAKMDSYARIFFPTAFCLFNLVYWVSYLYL
T1 sequence (P31644 32-462): as the sequence (P31644 32-462) above
T1 sequence (P47870 25-512 partner limits assumed): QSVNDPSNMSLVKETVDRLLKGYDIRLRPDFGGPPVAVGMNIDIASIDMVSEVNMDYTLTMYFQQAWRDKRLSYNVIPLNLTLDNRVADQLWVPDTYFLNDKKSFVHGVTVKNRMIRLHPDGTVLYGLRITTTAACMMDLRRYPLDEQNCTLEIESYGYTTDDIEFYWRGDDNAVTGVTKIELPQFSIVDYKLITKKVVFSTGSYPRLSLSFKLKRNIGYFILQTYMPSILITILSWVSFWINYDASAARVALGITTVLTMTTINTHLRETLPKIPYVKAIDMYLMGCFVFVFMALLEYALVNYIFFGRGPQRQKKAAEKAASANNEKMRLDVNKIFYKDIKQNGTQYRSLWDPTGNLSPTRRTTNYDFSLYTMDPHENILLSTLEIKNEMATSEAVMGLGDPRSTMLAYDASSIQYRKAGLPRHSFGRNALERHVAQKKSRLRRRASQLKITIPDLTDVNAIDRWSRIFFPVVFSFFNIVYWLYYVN
T1 sequence (P18507 40-475): as the sequence (P18507 40-475) above

SMILES | activation at 0.1 µM (GABAA receptors (α5β2γ2)) [%] | Ki (α5β3γ2 GABAA receptors) [nM]
CCOC(=O)c1ncn2c1Cc1c(C)nnn1-c1cc(OC)ccc1-2 [Compound 1] | 20 to 49 | < 99
CCOC(=O)c1ncn2c1Cc1c(C)nnn1-c1cc(F)ccc1-2 [Compound 2] | 20 to 49 | < 99
CCOC(=O)c1ncn2c1Cc1c(C)nnn1-c1ccccc1-2 [Compound 3] |  | < 99
CCOC(=O)c1ncn2c1Cc1c(Cc3ccccc3)nnn1-c1cc(OC)ccc1-2 [Compound 4] |  | < 99
CCOC(=O)c1ncn2c1Cc1c(Cc3ccccc3)nnn1-c1ccccc1-2 [Compound 5] |  | < 99
CCOC(=O)c1ncn2c1Cc1c(Cc3ccccc3)nnn1-c1cc(F)ccc1-2 [Compound 6] |  | < 99
CCOC(=O)c1ncn2c1Cc1c(C)cnn1-c1cc(OC)ccc1-2 [Compound 7] |  | < 99
CCOC(=O)c1ncn2c1Cc1c(Cc3ccccc3)cnn1-c1cc(OC)ccc1-2 [Compound 8] |  | < 99
CCOC(=O)c1ncn2c1Cc1c(COc3ccccc3)nnn1-c1cc(OC)ccc1-2 [Compound 9] | 20 to 49 | < 99
CCOC(=O)c1ncn2c1Cc1c(COc3ccc(F)cc3)nnn1-c1cc(OC)ccc1-2 [Compound 10] |  | < 99
CCOC(=O)c1ncn2c1Cc1c(COc3cccc(OC)c3)nnn1-c1cc(OC)ccc1-2 [Compound 11] | 20 to 49 | < 99
CCOC(=O)c1ncn2c1Cc1c(COc3ccc(C)cc3C)nnn1-c1cc(OC)ccc1-2 [Compound 12] |  | < 99
CCOC(=O)c1ncn2c1Cc1c(Cc3ccc(C)cc3)nnn1-c1cc(F)ccc1-2 [Compound 44] |  | < 99
CCOC(=O)c1ncn2c1Cc1c(Cc3ccc(Cl)cc3)nnn1-c1cc(F)ccc1-2 [Compound 45] | 20 to 49 | < 99
CCOC(=O)c1ncn2c1Cc1c(Cc3ccc(Cl)cc3)nnn1-c1ccccc1-2 [Compound 47] |  | < 99
CCOC(=O)c1ncn2c1Cc1c(CN3CCCC3)nnn1-c1cc(OC)ccc1-2 [Compound 48] | 20 to 49 | < 99
CCOC(=O)c1ncn2c1Cc1c(CN3CCOCC3)nnn1-c1cc(OC)ccc1-2 [Compound 49] |  | < 99
CCOC(=O)c1ncn2c1Cc1c(CN(C)Cc3ccccc3)nnn1-c1cc(OC)ccc1-2 [Compound 51] |  | < 99
CCOC(=O)c1ncn2c1Cc1c(Cc3cccc(Cl)c3)nnn1-c1cc(OC)ccc1-2 [Compound 52] |  | < 99

SMILES | activation at 0.1 µM (GABAA receptors (α5β2γ2)) [%] | Ki (α5β3γ2 GABAA receptors) [nM]
CCOC(=O)c1ncn2c1Cc1c(Cc3cccc(C#N)c3)nnn1-c1cc(OC)ccc1-2 [Compound 53] |  | < 99
CCOC(=O)c1ncn2c1Cn1c(COc3ccccc3)nnc1-c1cc(OC)ccc1-2 [Compound 55] | 20 to 49 | < 99
CCOC(=O)c1ncn2c1Cn1c(COc3ccc(F)cc3)nnc1-c1cc(OC)ccc1-2 [Compound 56] |  | < 99
CCOC(=O)c1ncn2c1Cn1c(COC)nnc1-c1cc(OC)ccc1-2 [Compound 103] |  | < 99
CCOC(=O)c1ncn2c1Cn1c(Oc3ccccc3)nnc1-c1cc(OC)ccc1-2 [Compound 104] |  | < 99
CCOC(=O)c1ncn2c1Cn1c(Oc3cccc(OC)c3)nnc1-c1cc(OC)ccc1-2 [Compound 105] |  | < 99
CCOC(=O)c1ncn2c1Cn1c(Br)nnc1-c1cc(OC)ccc1-2 [Compound 106] |  | < 99
CCOC(=O)c1ncn2c1Cc1c(COc3ccccc3)nnn1-c1cc(F)ccc1-2 [Compound 107] |  | < 99
CCOC(=O)c1ncn2c1Cc1c(Cc3ccccc3Cl)nnn1-c1cc(OC)ccc1-2 [Compound 108] |  | < 99
Cc1noc(-c2ncn3c2Cc2c(Cc4ccccc4)nnn2-c2cc(F)ccc2-3)n1 [Compound 109] | 20 to 49 | < 99
Cc1noc(-c2ncn3c2Cc2c(C)nnn2-c2cc(F)ccc2-3)n1 [Compound 110] | 20 to 49 | 
CCOC(=O)c1ncn2c1Cc1c(Cc3cccnc3)nnn1-c1cc(C)ccc1-2 [Compound 111] | 20 to 49 | < 99
Cc1nnn2c1Cc1c(C(=O)OC(C)C)ncn1-c1ccc(F)cc1-2 [Compound 112] |  | < 99
Cc1nnn2c1Cc1c(C(=O)OCC(C)(C)C)ncn1-c1ccc(F)cc1-2 [Compound 113] | > 50 | 
Cc1nnn2c1Cc1c(C(=O)OCC(F)(F)F)ncn1-c1ccc(F)cc1-2 [Compound 114] | > 50 | < 99
COc1ccc2c(c1)-c1nnc(COc3ccccc3)n1Cc1c(-c3nc(C)no3)ncn1-2 [Compound 118] | 20 to 49 | < 99
COc1ccc2c(c1)-c1nnc(COc3ccccc3)n1Cc1c(C(=O)OC(C)C)ncn1-2 [Compound 120] | 20 to 49 | < 99
COc1ccc2c(c1)-c1nnc(COc3ccccc3)n1Cc1c(C#N)ncn1-2 [Compound 122] |  | < 99
Cc1noc(-c2ncn3c2Cc2c(C)nnn2-c2ccccc2-3)n1 [Compound 126] | 20 to 49 | < 99

SMILES | activation at 0.1 µM (GABAA receptors (α5β2γ2)) [%] | Ki (α5β3γ2 GABAA receptors) [nM]
Cc1nc(-c2ncn3c2Cc2c(C)nnn2-c2ccccc2-3)no1 [Compound 127] | 20 to 49 | < 99
COCc1nnc2n1Cc1c(-c3nc(C)no3)ncn1-c1ccc(OC)cc1-2 [Compound 128] | 20 to 49 | < 99
COCc1nnc2n1Cc1c(Br)ncn1-c1ccc(OC)cc1-2 [Compound 129] |  | < 99
COCc1nnc2n1Cc1c(-c3nc(C(C)C)no3)ncn1-c1ccc(OC)cc1-2 [Compound 130] | 20 to 49 | < 99
Cc1nnn2c1Cc1c(-c3nc(C(C)C)no3)ncn1-c1ccccc1-2 [Compound 132] | 20 to 49 | < 99
Cc1nnn2c1Cc1c(-c3noc(C(C)C)n3)ncn1-c1ccccc1-2 [Compound 133] |  | < 99
CCOC(=O)c1ncn2c1Cn1c(COc3ccccc3)nnc1-c1cc(F)ccc1-2 [Compound 137] | 20 to 49 | < 99
Cc1nnn2c1Cc1c(-c3noc(C(F)(F)F)n3)ncn1-c1ccc(F)cc1-2 [Compound 150] |  | < 99
Cc1nnn2c1Cc1c(-c3ncon3)ncn1-c1ccc(F)cc1-2 [Compound 151] |  | < 99
CC(C)OC(=O)c1ncn2c1Cn1c(COc3ccccc3)nnc1-c1cc(F)ccc1-2 [Compound 156] |  | < 99
N#Cc1ncn2c1Cn1c(COc3ccccc3)nnc1-c1cc(F)ccc1-2 [Compound 157] |  | < 99
Fc1ccc2c(c1)-c1nnc(COc3ccccc3)n1Cc1c(-c3noc(C(F)(F)F)n3)ncn1-2 [Compound 159] |  | < 99
C#Cc1ncn2c1Cc1c(C)nnn1-c1ccccc1-2 [Compound 161] |  | < 99
COCc1nnc2n1Cc1c(-c3noc(C)n3)ncn1-c1ccc(OC)cc1-2 [Compound 164] |  | < 99
COc1ccc2c(c1)-c1nnc(COCc3ccccc3)n1Cc1c(-c3noc(C)n3)ncn1-2 [Compound 165] |  | < 99
COc1ccc2c(c1)-c1nnc(COCc3ccccc3)n1Cc1c(C#N)ncn1-2 [Compound 166] |  | < 99
COc1ccc2c(c1)-n1nnc(C)c1Cc1c(-c3nc(C)no3)ncn1-2 [Compound 167] |  | < 99
COc1ccc2c(c1)-n1nnc(COc3cccc(F)c3)c1Cc1c(-c3noc(C)n3)ncn1-2 [Compound 168] |  | < 99
COCc1nnc2n1Cc1c(-c3noc(C(C)C)n3)ncn1-c1ccc(OC)cc1-2 [Compound 169] |  | < 99
